Data published in patent US6087120A, “Measurement of complement activation by biomaterials by means of complement convertase cleavage of peptide substrates” (HaemoProbe B.V., priority 1996, dated 2000).
“Also recorded” adds a separate entry of the source. Peptide text beside a SMILES is read from it. * marks the point of attachment. pNA = O=[N+]([O-])c1ccc(N*)cc1; Boc = CC(C)(C)OC(=O)*; Bz = O=C(c1ccccc1)*

Legend:
Format in all cases: biochemical, Human
C5-convertase [1] = assay: Complement convertase released in incubated def PPP: cleavage of H- or Bz-Leu-Gly-Arg-pNA, OD 405 nm; settings: for substrate cleavage in the incubated plasma solution: def PPP after incubation with PDMS, 60 hours, FIG. 3a; for specificity of the substrate for complement activation: judged from the effect of EDTA and enzyme inhibitors on cleavage, FIG. 6
Excerpt: (§1) Human blood was collected from a healthy volunteer by vena puncture. Blood was mixed immediately with sodium citrate (0.316%, final concentration) to prevent clotting. Then blood was centrifuged (1100 xg) to obtain separation between plasma and blood cells. In our experiments we used this citrated human plasma after treatment with reptilase to coagulate fibrinogen. This plasma, deficient of fibrinogen (def PPP), contains the other coagulation components and can be mixed with Ca^++ containing buffer to optimize complement activation. This def PPP was stored in aliquots at -80° C. We diluted this in 50 mM TRIS buffer+33 mM CaCl2 (pH 7.4) to a percentage of 20% prior to use. The biomaterial PDMS (polydimethyl-siloxane, silicon rubber) was cut into 1 cm^2 pieces. For cleaning the biomaterial it was incubated at first in 70% ethanol, and then rinsed in 0.9% NaCl. During the experiment the pieces of biomaterials were incubated in 500 μl diluted def PPP during 0, 10, 30, or 60 min at room temperature. After incubation, the biomaterials were rinsed 3 times with saline. Then the biomaterials were incubated in BOC-Leu-Gly-Arg-pNA, diluted in TRIS buffer +33 mM CaCl2, during 60 hours at room temperature in the dark. Simultaneously, also 100 μl def PPP, in which the biomaterials had been incubated, were mixed with 100 μl of H-Leu-Gly-Arg-pNA or Bz-Leu-Gly-Arg-pNA, diluted in TRIS buffer, supplemented with 33 mM CaCl2. After these 60 hours the OD was measured at 405 nm in a spectrophotometer (microplate reader 3550 UV; Biorad, Richmond, Calif., USA).
In a second experiment the incubated def PPP was incubated in the presence of Ca^++ as described above and 100 μl def PPP was collected after 30 minutes. Then this collected def PPP was incubated with H-Leu-Gly-Arg-pNA and Bz-Leu-Gly-Arg-pNA in the presence of Ca^++ or in the absence of Ca^++ with EDTA.

complement convertase = assay: Effect of enzyme inhibitors or EDTA present during incubation of PDMS in def PPP on convertase formation; settings: for inhibition of substrate conversion by inhibitor added prior to incubation: PDMS in def PPP aliquots, substrate H-Leu-Gly-Arg-pNA, FIG. 6
Description: To verify the specificity of complement convertase activity, PDMS was incubated with diluted def PPP supplemented with Ca^++ (allowing convertases to be formed) or with EDTA (preventing convertase formation).
A number of enzyme inhibitors was used to further specify the complement convertase test of the incubated def PPP with substrate H-Leu-Gly-Arg-pNA.During incubation with PDMS in different aliquots a specific thrombin inhibitor (I2581, Kabi), C1 esterase inhibitor (Sigma), the plasmin/kallikrein/chymotrypsin inhibitor aprotinin (Bayer) and EDTA was used.

C5-convertase [2] = assay: Complement convertase bound to biomaterial surface: cleavage of BOC-Leu-Gly-Arg-pNA, OD 405 nm; settings: washed PDMS after incubation in def PPP; 60 hours; FIG. 3a
Description: as §1, with “Blood was mixed immediately with sodium citrate (0.316%, final concentration) to prevent clotting.” left out, “CaCl2.” for “CaCl2. After these 60 hours the OD was measured at 405 nm in a spectrophotometer (microplate reader 3550 UV; Biorad, Richmond, Calif., USA).”

Compound	substrate cleavage in the incubated plasma solution (C5-convertase [1])	specificity of the substrate for complement activation (C5-convertase [1]; FIG. 4a)	inhibition of substrate conversion by inhibitor added prior to incubation (complement convertase)	also measured
CC(C)C[C@H](NC(=O)c1ccccc1)C(=O)NCC(=O)N[C@@H](CCCNC(=N)N)C(=O)Nc1ccc([N+](=O)[O-])cc1 [Bz-Leu-Gly-Arg-pNA] (Bz-Leu-Gly-Arg-pNA)	effective in the plasma solution; also recorded: colour formation	not reduced by EDTA; also recorded: considered non-specific		
CC(C)C[C@H](N)C(=O)NCC(=O)N[C@@H](CCCNC(=N)N)C(=O)Nc1ccc([N+](=O)[O-])cc1 [H-Leu-Gly-Arg-pNA] (H-Leu-Gly-Arg-pNA)	effective in the plasma solution; also recorded: colour formation	complement dependent		
O=C(O)CN(CCN(CC(=O)O)CC(=O)O)CC(=O)O [EDTA, ethylenediamine tetra-acetic acid, reference compound]			almost completely prevented substrate conversion; also recorded: best inhibitor	effect of EDTA during substrate cleavage (second incubation) on formed convertases (C5-convertase [1]; def PPP collected after 30 min with PDMS, EDTA added with the substrate, FIG. 4a): did not prevent substrate cleavage by formed complexes; also recorded: formed convertases remained active in EDTA; convertase formation with EDTA instead of Ca++ during incubation (complement convertase; PDMS in diluted def PPP supplemented with Ca++ or EDTA): completely prevented convertase formation
CC(C)C[C@H](NC(=O)OC(C)(C)C)C(=O)NCC(=O)N[C@@H](CCCNC(=N)N)C(=O)Nc1ccc([N+](=O)[O-])cc1 [BOC-Leu-Gly-Arg-pNA] (Boc-Leu-Gly-Arg-pNA)				substrate cleavage on the PDMS surface (C5-convertase [2]): most effective on the PDMS surface; also recorded: colour formation
aprotinin			did not inhibit substrate conversion; also recorded: then aprotinin	
